Columns and labels:
[1] = test system: HIF2α reporter cells (786-O-HIF2α-Luc cells); assay: Luciferase Assay (HIF2α reporter cells); type: cell-based; settings: 18-20 h, Steady-Glo luminescence
Description: Luciferase LUC gene was transfected into 786-O cells (purchased from ATCC) using Lipofectamine 3000 Transfection Reagent (purchased from Invitrogen) to construct HIF2α reporter cells (786-O-HIF2α-Luc cells). Experiments were performed when 786-O-HIF2α-Luc cells were in logarithmic growth phase, culture medium (RPMI MEDIUM 1640, purchased from Invitrogen) was abandoned, the cells were rinsed with PBS three times; trypsin (TrypLE, purchased from invitrogen) was added to digest cells, the digestion was terminated by washing the cells with culture medium, 10% fetal bovine serum, 1% penicillin and streptomycin. The cells were collected by centrifugation, rinsed twice with PBS to remove the phenol red in the medium, and then resuspended the cells to an appropriate concentration, and detected the cell density and viability, and made sure the cell viability is above 90% before it can be used for experiments.
The gradient concentration compound was transferred into 384-well plate, 25 nl/well using Echo 550 (non-contact sonic pipetting system, purchased from Labcyte); the cells were seeded in 384-well plate, 4500 cells/well, with 25 μl of culture medium, to make the final concentrations as follows: 10000, 3333, 1111, 370, 123, 41.1, 13.7, 4.6, 1.5, 0.5 nM. Cells were incubated at 37° C., 5% CO2 for 18-20 h; Steady-Glo™ Luciferase Assay System (purchased from Promega) was added to 384 well-plate, 25 μl/well; the luminescence value was detected with Envision. The % inhibition rate was calculated according to the RLU (Record Luminescence) signal value of each well, and then the IC50 of the corresponding compound was calculated by Graphpad 8.0.

[2] = test system: VEGFA (786-O cells); assay: VEGFA ELISA Assay (IC50); type: cell-based; settings: VEGFA in culture supernatant by ELISA
Description: 786-O cells in exponential growth phase were seeded in 96-well plate, the cell concentration was 65,000 cells per milliliter of culture medium, 180 ul per well. Compounds were serial diluted to the indicated concentration, and 20 ul compound solutions of different concentrations were added to the corresponding cell wells. The final compound concentrations were as follows (nM): 1.5, 4.6, 13.7, 41.2, 123.5, 370.4, 1111.1, 3333.3, 10000. After 24 hours of incubation, the cell culture supernatant was taken, and the VEGFA concentration was determined using an ELISA kit (purchased from abcam). Finally, the reaction was terminated, and the light absorbance value of each well was measured using a microplate reader at a wavelength of […], and IC50 was calculated by GraphPad Prism. Cell Titer-Glo reagent was used to measure cell viability.

[3] = Homo sapiens, 786-0, 24 h, 24 hours incubation, numeric values
[4] = Homo sapiens, 786-0, 24 h, 24 hours incubation, class symbols

| SMILES | IC50 ([1]; numeric values) [nM] | IC50 [2, 3] [nM] | IC50 ([1]; class symbols) [nM] | IC50 [2, 4] [nM] | also measured |
| --- | --- | --- | --- | --- | --- |
| O[C@H]1c2c(C(F)(F)F)cn(-c3ccc(F)c(C(F)F)c3)c2CC[C@H]1F (single isomer, unassigned) [Example 104] | 22 | 6.2 |  |  |  |
| N#Cc1cc(-n2cc(C(F)(F)F)c3c2CCC(F)(F)[C@H]3F)ccc1F (single isomer, unassigned) [Example 196] |  |  | ≤ 500 | ≤ 500 |  |
| OC1c2c(C(F)(F)F)cn(-c3cc(F)cc(Cl)c3)c2CCC1(F)F (stereo not drawn) [Example 7, 1-(3-chloro-5-fluorophenyl)-5,5-difluoro-3-(trifluoromethyl)-4,5,6,7-tetrahydro-1H-indol-4-ol] | 57.7 | 30.7 |  |  |  |
| N#Cc1cc(F)cc(-n2cc(C(F)(F)F)c3c2CCC(F)(F)C3O)c1 (stereo not drawn) [Example 12, 3-(5,5-difluoro-4-hydroxy-3-(trifluoromethyl)-4,5,6,7-tetrahydro-1H-indol-1-yl)-5-fluorobenzonitrile] |  | 67.5 | ≤ 500 |  |  |
| OC1c2c(C(F)(F)F)cn(-c3cccc(Cl)c3)c2CCC1(F)F (stereo not drawn) [Example 15, l-(3-chlorophenyl)-5,5-difluoro-3-(trifluoromethyl)-4,5,6,7-tetrahydro-1H-indol-4-ol] |  | 18.8 | ≤ 500 |  |  |
| N#Cc1cccc(-n2cc(C(F)(F)F)c3c2CCC(F)(F)C3O)c1 (stereo not drawn) [Example 19, 3-(5,5-difluoro-4-hydroxy-3-(trifluoromethyl)-4,5,6,7-tetrahydro-1H-indol-1-yl)benzonitrile] |  |  | ≤ 500 | ≤ 500 |  |
| OC1c2c(C(F)(F)F)cn(-c3cc(Cl)cc(Cl)c3)c2CCC1(F)F (stereo not drawn) [Example 20, 1-(3,5-dichlorophenyl)-5,5-difluoro-3-(trifluoromethyl)-4,5,6,7-tetrahydro-1H-indol-4-ol] |  |  | ≤ 500 | ≤ 500 |  |
| OC1CCCc2c1c(C(F)(F)F)cn2-c1cc(F)cc(F)c1 (stereo not drawn) [Example 37, 1-(3,5-difluorophenyl)-3-(trifluoromethyl)-4,5,6,7-tetrahydro-1H-indol-4-ol] |  |  | ≤ 500 | ≤ 500 |  |
| O[C@H]1c2c(-c3cccs3)cn(-c3cc(F)cc(Cl)c3)c2CCC1(F)F [Example 48, (S)-1-(3-chloro-5-fluorophenyl)-5,5-difluoro-3-(thiophen-2-yl)-4,5,6,7-tetrahydro-1H-indol-4-ol] |  | 45.6 | ≤ 500 |  |  |
| O[C@H]1c2c(C(F)(F)F)cn(-c3cc(F)cc(F)c3)c2CCC1(F)F [Example 64, (S)-1-(3,5-difluorophenyl)-5,5-difluoro-3-(trifluoromethyl)-4,5,6,7-tetrahydro-1H-indol-4-ol] |  |  | ≤ 500 | ≤ 500 |  |
| N#Cc1cc(-c2cc(C(F)(F)F)c3n2CCC(F)(F)C3O)ccc1F (stereo not drawn) [Example 69, 5-(7,7-difluoro-8-hydroxyl-1-(trifluoromethyl)-5,6,7,8-tetrahydroindolizin-3-yl)-2-fluorobenzonitrile] | 67 | 44.2 |  |  |  |
| N#Cc1cc(-c2cc(C(F)(F)F)c3n2CCC(F)(F)[C@H]3O)ccc1F [Example 70, (S)-5-(7,7-difluoro-8-hydroxyl-1-(trifluoromethyl)-5,6,7,8-tetrahydroindolizin-3-yl)-2-fluorobenzonitrile] | 84.2 | 45.4 |  |  |  |
| N#Cc1cc(-c2cc(C(F)(F)F)c3n2CCC(F)C3O)ccc1F (stereo not drawn) [Example 75, 2-fluoro-5-(7-fluoro-8-hydroxy-1-(trifluoromethyl)-5,6,7,8-tetrahydroindolizin-3-yl)benzonitrile] |  |  | ≤ 500 | ≤ 500 |  |
| N#Cc1cc(-n2cc(C(F)(F)F)c3c2CCC(F)(F)[C@H]3O)ccc1F [Example 95] | 37.6 |  |  |  | IC50 ([2]; 24 hours incubation, numeric values): 14.5 nM |
| OC1c2c(C(F)(F)F)c(F)n(-c3cc(F)cc(Cl)c3)c2CCC1(F)F (stereo not drawn) [Example 106, 1-(3-chloro-5-fluorophenyl)-2,5,5-trifluoro-3-(trifluoromethyl)-4,5,6,7-tetrahydro-1H-indol-4-ol] |  |  | ≤ 500 | ≤ 500 |  |
| O[C@H]1c2c(C(F)(F)F)cn(-c3cc(F)cc(Cl)c3)c2CCC1(F)F [Example 116, (S)-1-(3-chloro-5-fluorophenyl)-5,5-difluoro-3-(trifluoromethyl)-4,5,6,7-tetrahydro-1H-indol-4-ol] | 53.2 | 27.7 |  |  |  |
| OC1c2c(C(F)(F)F)cn(-c3ccc(F)c(Cl)c3)c2CCC1(F)F (stereo not drawn) [Example 120, 1-(3-chloro-4-fluorophenyl)-5,5-difluoro-3-(trifluoromethyl)-4,5,6,7-tetrahydro-1H-indol-4-ol] | 75.7 | 38.9 |  |  |  |
| N#Cc1cc(-n2cc(C(F)(F)F)c3c2CCC(F)(F)C3O)ccc1F (stereo not drawn) [Example 121] | 98.5 | 31 |  |  |  |
| N#Cc1ccc(-n2cc(C(F)(F)F)c3c2CCC(F)(F)C3O)cc1Cl (stereo not drawn) [Example 124, 2-chloro-4-(5,5-difluoro-4-hydroxy-3-(trifluoromethyl)-4,5,6,7-tetrahydro-1H-indol-1-yl)benzonitrile] |  |  | ≤ 500 |  | IC50 ([2]; Homo sapiens, 786-0, 24 hours incubation, numeric values): 8.5 nM |
| N#Cc1ccc(-n2cc(C(F)(F)F)c3c2CCC(F)(F)C3O)cc1C#N (stereo not drawn) [Example 125, 4-(5,5-difluoro-4-hydroxy-3-(trifluoromethyl)-4,5,6,7-tetrahydro-1H-indol-1-yl)phthalonitrile] |  | 34 | ≤ 500 |  |  |
| N#Cc1cc(-n2cc(C(F)(F)F)c3c2CCC(F)[C@H]3O)ccc1F (stereo partly drawn) [Example 131, 2-fluoro-5-((4S)-5-fluoro-4-hydroxy-3-(trifluoromethyl)-4,5,6,7-tetrahydro-1H-indol-1-yl)benzonitrile] |  |  | ≤ 500 | ≤ 500 |  |
| OC1c2c(C(F)(F)F)cn(-c3cc(F)c(F)c(F)c3)c2CCC1(F)F (stereo not drawn) [Example 148] |  |  | ≤ 500 | ≤ 500 |  |
| OC1c2c(C(F)(F)F)cn(-c3ccc(F)c(C(F)(F)F)c3)c2CCC1(F)F (stereo not drawn) [Example 156, 5,5-difluoro-1-(4-fluoro-3-(trifluoromethyl)phenyl)-3-(trifluoromethy)-4,5,6,7-tetrahydro-1H-indol-4-ol] | 70.5 | 15.6 |  |  |  |
| OC1c2c(C(F)(F)F)cn(/C=C/c3ccccc3)c2CCC1(F)F (stereo not drawn) [Example 181, (E)-5,5-difluoro-1-styryl-3-(trifluoromethyl)-4,5,6,7-tetrahydro-1H-indol-4-ol] |  |  |  | 1500 to 10000 |  |
| O=C1c2c(C(F)(F)F)cn(-c3ccc(F)c(C(F)F)c3)c2CCC1(F)F [Example 190, 1-(3-(difluoromethyl)-4-fluorophenyl)-5,5-difluoro-3-(trifluoromethyl)-1,5,6,7-tetrahydro-4H-indol-4-one] |  |  |  | 500 to 1500 |  |
| CS(=O)(=O)c1cn(-c2cc(F)cc(C#N)c2)c2c1C(O)C(F)CC2 (stereo not drawn) [Example 193, 3-fluoro-5-(5-fluoro-4-hydroxy-3-(methylsulfonyl)-4,5,6,7-tetrahydro-1H-indol-1-yl)benzonitrile] |  |  |  | ≤ 500 |  |
| Fc1cc(Cl)cc(-n2cc(C(F)(F)F)c3c2CCc2cnoc2-3)c1 [Example 201, 6-(3-chloro-5-fluorophenyl)-8-(trifluoromethyl)-5,6-dihydro-4-H-isoxazolo[5,4-e]indole] |  |  |  |  | IC50 ([2]; 24 hours incubation, class symbols): > 1500 nM |
| Fc1cc(Cl)cc(-n2cc(C(F)(F)F)c3c2CCc2cn[nH]c2-3)c1 [Example 202, 6-(3-chloro-5-fluorophenyl)-8-(trifluoromethyl)-1,4,5,6-tetrahydropyrrolo-[2,3-g]indazole] |  |  |  | > 1500 |  |
